≈ marks a conversion by molar mass, not a printed value.
Tests used:
[1] = tested on: Candida albicans A9540; assay: In vitro antifungal activity (MIC), agar dilution on yeast morphology agar; assay type: cell-based; details: YMA, 0.06M phosphate (pH 7.0), 28°C, 40 hours, read-out: MIC Ca-4
Procedure: (§1) The in vitro antifungal activity (MIC) of the compounds of the invention was determined on yeast morphology agar (YMA, Difco Laboratories, USA), buffered with 0.06M phosphate (pH 7.0). Nine parts of molten agar were combined with one part of antibiotic dilution in petri dishes. A 5-µl suspension containing 2x10⁶ cells/ml was spotted on the surface of the agar plates. The plates were incubated at 28°C and MICs were recorded after 40 hours of the incubation. All of the 11-hydroxy derivatives of Formula I-I are active against a wide range of fungi.

[2] = tested on: Cryptococcus neoformans IAM4514; assay: as above; assay type: cell-based; details: YMA, 0.06M phosphate (pH 7.0), 28°C, 40 hours, read-out: MIC Cn-2
Procedure: as §1

[3] = tested on: Candida tropicalis IFO10241; assay: as above; assay type: cell-based; details: YMA, 0.06M phosphate (pH 7.0), 28°C, 40 hours, read-out: MIC Ct-12
Procedure: as §1

[4] = tested on: Strain AA 3798; assay: Antibiotic susceptibility of the producing strain, antibiotic disks; assay type: cell-based, unidentified actinomycete; details: yeast-glucose-malt agar, 37°C, 4 days
Procedure: Antibiotic susceptibility of strain AA 3798 was examined using antibiotic disks (Tridisk, Eiken Chemical Co., Ltd). The disks were placed onto the surface of yeast-glucose-malt agar (yeast extract 0.1%, glucose 1%, malt extract 0.1%, CaCl₂·2H₂O 0.05%, and agar 1.5%) which had been seeded by strain AA 3798 (4% inoculum), and the plates were then incubated at 37°C for 4 days.

| Compound | MIC [1] [µg/mL] | MIC [2] [µg/mL] | MIC [3] [µg/mL] | other results |
| --- | --- | --- | --- | --- |
| CNC1C(C)OC(OC2c3cc(C)c(C(=O)NC(C)C(=O)O)c(O)c3-c3c(cc4c(c3O)C(=O)c3cc(O)cc(O)c3C4=O)C2O)C(O)C1OC1OCC(O)C(O)C1O (stereo not drawn) [Compound IA, 11-O-Demethylpradimicin A] | 6.3 (≈ 7.62 µM) | 3.1 (≈ 3.75 µM) | 25 (≈ 30.2 µM) |  |
| CNC1C(C)OC(OC2c3cc(C)c(C(=O)NC(CO)C(=O)O)c(O)c3-c3c(cc4c(c3O)C(=O)c3cc(O)cc(O)c3C4=O)C2O)C(O)C1OC1OCC(O)C(O)C1O (stereo not drawn) [ID, 11-O-Demethylpradimicin FA-1] | 6.3 (≈ 7.48 µM) | 3.1 (≈ 3.68 µM) | 12.5 (≈ 14.8 µM) |  |
| Cc1cc2c(c(O)c1C(=O)NC(CO)C(=O)O)-c1c(cc3c(c1O)C(=O)c1cc(O)cc(O)c1C3=O)C(O)C2OC1OC(C)C(N(C)C)C(OC2OCC(O)C(O)C2O)C1O (stereo not drawn) [IE, 11-O-Demethyl-BMS-181182] | 6.3 (≈ 7.35 µM) | 6.3 (≈ 7.35 µM) | 25 (≈ 29.2 µM) |  |
| CNC1C(C)OC(OC2c3cc(C)c(C(=O)NC(C)C(=O)O)c(O)c3-c3c(cc4c(c3O)C(=O)c3cccc(O)c3C4=O)C2O)C(O)C1OC1OCC(O)C(O)C1O (stereo not drawn) [IIG, 11-Demethoxypradimicin A] | 6.3 (≈ 7.77 µM) | 1.6 (≈ 1.97 µM) | 12.5 (≈ 15.4 µM) |  |
| CN[C@@H]1[C@H](O[C@@H]2OC[C@@H](O)[C@H](O)[C@H]2O)[C@@H](O)[C@H](O[C@H]2c3cc(C)c(C(=O)N[C@H](C)C(=O)O)c(O)c3-c3c(cc4c(c3O)C(=O)c3cc(OC)cc(O)c3C4=O)[C@@H]2O)O[C@@H]1C [Pradimicin A, reference compound] | 6.3 (≈ 7.49 µM) | 1.6 (≈ 1.9 µM) | 12.5 (≈ 14.9 µM) |  |
| CC1(C)S[C@@H]2[C@H](NC(=O)[C@H](N)c3ccccc3)C(=O)N2[C@H]1C(=O)O [ampicillin] |  |  |  | Antibiotic susceptibility of strain AA 3798 ([4]; disk 20 µg): resistance |
| CC1=C(C(=O)O)N2C(=O)[C@@H](NC(=O)[C@H](N)c3ccccc3)[C@H]2SC1 [cephalexin] |  |  |  | Antibiotic susceptibility of strain AA 3798 ([4]; disk 10 µg): resistance |
| O=C(N[C@H](CO)[C@H](O)c1ccc([N+](=O)[O-])cc1)C(Cl)Cl [chloramphenicol] |  |  |  | Antibiotic susceptibility of strain AA 3798 ([4]; disk 10 µg): susceptible |
| O=C(O)[C@H]1/C(=C/CO)O[C@@H]2CC(=O)N21 [clavulanic acid] |  |  |  | Antibiotic susceptibility of strain AA 3798 ([4]; disk 1 µg): susceptible |
| CC[C@H]1OC(=O)[C@H](C)[C@@H](O[C@H]2C[C@@](C)(OC)[C@@H](O)[C@H](C)O2)[C@H](C)[C@@H](O[C@@H]2O[C@H](C)C[C@H](N(C)C)[C@H]2O)[C@](C)(O)C[C@@H](C)C(=O)[C@H](C)[C@@H](O)[C@]1(C)O [erythromycin] |  |  |  | Antibiotic susceptibility of strain AA 3798 ([4]; disk 10 µg): resistance |
| C[C@@H]1O[C@@H]1P(=O)(O)O [fosfomycin] |  |  |  | Antibiotic susceptibility of strain AA 3798 ([4]; disk 50 µg): resistance |
| CO[C@@H]1[C@@H](O[C@@H]2O[C@H](C)[C@@H](O[C@H]3C[C@@](C)(O)[C@@H](OC(=O)CC(C)C)[C@H](C)O3)[C@H](N(C)C)[C@H]2O)[C@@H](CC=O)C[C@@H](C)[C@@H](O)/C=C/C=C/C[C@@H](C)OC(=O)C[C@H]1OC(C)=O [josamycin] |  |  |  | Antibiotic susceptibility of strain AA 3798 ([4]; disk 15 µg): resistance |
| CCC[C@@H]1C[C@@H](C(=O)N[C@@H]([C@H]2O[C@H](SC)[C@H](O)[C@@H](O)[C@H]2O)[C@@H](C)O)N(C)C1 [lincomycin] |  |  |  | Antibiotic susceptibility of strain AA 3798 ([4]; disk 15 µg): resistance |
| CCn1cc(C(=O)O)c(=O)c2ccc(C)nc21 [nalidixic acid] |  |  |  | Antibiotic susceptibility of strain AA 3798 ([4]; disk 15 µg): resistance |
| CCn1cc(C(=O)O)c(=O)c2cc(F)c(N3CCNCC3)cc21 [norfloxacin] |  |  |  | Antibiotic susceptibility of strain AA 3798 ([4]; disk 2 µg): susceptible |
| CC1(C)S[C@@H]2[C@H](NC(=O)[C@H](C(=O)O)c3ccsc3)C(=O)N2[C@H]1C(=O)O [ticarcillin] |  |  |  | Antibiotic susceptibility of strain AA 3798 ([4]; disk 2 µg): susceptible |
| NC[C@H]1O[C@H](O[C@H]2[C@H](O)[C@@H](O[C@H]3O[C@H](CO)[C@@H](O)[C@H](N)[C@H]3O)[C@H](N)C[C@@H]2N)[C@H](N)C[C@@H]1O [tobramycin] |  |  |  | Antibiotic susceptibility of strain AA 3798 ([4]; disk 10 µg): resistance |
| colistin |  |  |  | Antibiotic susceptibility of strain AA 3798 ([4]; disk 50 U): susceptible |
| gentamicin |  |  |  | Antibiotic susceptibility of strain AA 3798 ([4]; disk 5 µg): resistance |
| polymyxin B |  |  |  | Antibiotic susceptibility of strain AA 3798 ([4]; disk 300 U): resistance |

Continued, in another order:

| MIC [1] [µg/mL] | MIC [2] [µg/mL] | MIC [3] [µg/mL] | Compound | other results |
| --- | --- | --- | --- | --- |
| 6.3 (≈ 7.75 µM) | 1.6 (≈ 1.97 µM) | 12.5 (≈ 15.4 µM) | Cc1cc2c(c(O)c1C(=O)NC(C)C(=O)O)-c1c(cc3c(c1O)C(=O)c1cc(O)cc(O)c1C3=O)C(O)C2OC1OC(C)C(N)C(OC2OCC(O)C(O)C2O)C1O (stereo not drawn) [IC, 11-O-Demethylpradimicin C] |  |
| 6.3 (≈ 7.59 µM) | 12.5 (≈ 15.1 µM) | 12.5 (≈ 15.1 µM) | Cc1cc2c(c(O)c1C(=O)NC(CO)C(=O)O)-c1c(cc3c(c1O)C(=O)c1cc(O)cc(O)c1C3=O)C(O)C2OC1OC(C)C(O)C(OC2OCC(O)C(O)C2O)C1O (stereo not drawn) [IF, 11-O-Demethyl-BMS-181184] |  |
| 3.1 (≈ 3.75 µM) | 1.6 (≈ 1.93 µM) | 12.5 (≈ 15.1 µM) | CCOc1cc(O)c2c(c1)C(=O)c1c(cc3c(c1O)-c1c(cc(C)c(C(=O)NCC(=O)O)c1O)[C@H](O[C@@H]1O[C@H](C)[C@H](O)[C@H](O[C@@H]4OC[C@@H](O)[C@H](O)[C@H]4O)[C@H]1O)[C@H]3O)C2=O [IIA, 11-O-Dexylosyl-11-O-ethylpradimicin T1] |  |
| 3.1 (≈ 3.67 µM) | 1.6 (≈ 1.89 µM) | 6.3 (≈ 7.45 µM) | Cc1cc2c(c(O)c1C(=O)NCC(=O)O)-c1c(cc3c(c1O)C(=O)c1cc(OCCF)cc(O)c1C3=O)[C@H](O)[C@H]2O[C@@H]1O[C@H](C)[C@H](O)[C@H](O[C@@H]2OC[C@@H](O)[C@H](O)[C@H]2O)[C@H]1O [IIB, 11-O-Dexylosyl-11-O-(2-fluoroethyl)pradimicin T1] |  |
| 6.3 (≈ 7.5 µM) | 3.1 (≈ 3.69 µM) | 12.5 (≈ 14.9 µM) | C=CCOc1cc(O)c2c(c1)C(=O)c1c(cc3c(c1O)-c1c(cc(C)c(C(=O)NCC(=O)O)c1O)[C@H](O[C@@H]1O[C@H](C)[C@H](O)[C@H](O[C@@H]4OC[C@@H](O)[C@H](O)[C@H]4O)[C@H]1O)[C@H]3O)C2=O [IIC, 11-O-Allyl-11-O-dexylosylpradimicin T1] |  |
| > 100 | 12.5 (≈ 14 µM) | > 100 | Cc1cc2c(c(O)c1C(=O)NCC(=O)O)-c1c(cc3c(c1O)C(=O)c1cc(OCc4ccccc4)cc(O)c1C3=O)[C@H](O)[C@H]2O[C@@H]1O[C@H](C)[C@H](O)[C@H](O[C@@H]2OC[C@@H](O)[C@H](O)[C@H]2O)[C@H]1O [IID, 11-O-Benzyl-11-O-dexylosylpradimicin T1] |  |
| 6.3 (≈ 8.04 µM) | 6.3 (≈ 8.04 µM) | 12.5 (≈ 16 µM) | Cc1cc2c(c(O)c1C(=O)NCC(=O)O)-c1c(cc3c(c1O)C(=O)c1cccc(O)c1C3=O)[C@H](O)[C@H]2O[C@@H]1O[C@H](C)[C@H](O)[C@H](O[C@@H]2OC[C@@H](O)[C@H](O)[C@H]2O)[C@H]1O [III, 11-Dexylosyloxypradimicin T1] |  |
| 12.5 (≈ 15.1 µM) | 50 (≈ 60.5 µM) | > 100 | Cc1cc2c(c(O)c1C(=O)NCC(=O)O)-c1c(cc3c(c1O)C(=O)c1cc(N(C)C)cc(O)c1C3=O)[C@H](O)[C@H]2O[C@@H]1O[C@H](C)[C@H](O)[C@H](O[C@@H]2OC[C@@H](O)[C@H](O)[C@H]2O)[C@H]1O [IIJ, 11-Dexylosyloxy-11-dimethylaminopradimicin T1] |  |
| 12.5 (≈ 15.1 µM) | 6.3 (≈ 7.62 µM) | 25 (≈ 30.2 µM) | Cc1cc2c(c(O)c1C(=O)NCC(=O)O)-c1c(cc3c(c1O)C(=O)c1cc(C(N)=O)cc(O)c1C3=O)[C@H](O)[C@H]2O[C@@H]1O[C@H](C)[C@H](O)[C@H](O[C@@H]2OC[C@@H](O)[C@H](O)[C@H]2O)[C@H]1O [IIK, 11-Carbamoyl-11-dexylosyloxy pradimicin T1] |  |
| 12.5 (≈ 15.5 µM) | 6.3 (≈ 7.79 µM) | 25 (≈ 30.9 µM) | Cc1cc2c(c(O)c1C(=O)NCC(=O)O)-c1c(cc3c(c1O)C(=O)c1cc(C#N)cc(O)c1C3=O)[C@H](O)[C@H]2O[C@@H]1O[C@H](C)[C@H](O)[C@H](O[C@@H]2OC[C@@H](O)[C@H](O)[C@H]2O)[C@H]1O [IIL, 11-Cyano-11-dexylosyloxy pradimicin T1] |  |

— patent EP0600782A1, “C-11 modified pradimicin derivatives” (priority 1992, dated 1994)
